Tests used:
[1] = molecular target: T1, human ETA receptors (Homo sapiens, UniProt P25101); assay: Binding Test #1: inhibition of 125I-ET-1 binding to ETA receptors (TE 671 cell membranes); conditions: Table 1; † incubation at 24° C.; read-out: ETA
T1 construct: endogenous in cells; host or cells: TE 671 cells (ATCC HTB 139)
T1 sequence (P25101 21-427): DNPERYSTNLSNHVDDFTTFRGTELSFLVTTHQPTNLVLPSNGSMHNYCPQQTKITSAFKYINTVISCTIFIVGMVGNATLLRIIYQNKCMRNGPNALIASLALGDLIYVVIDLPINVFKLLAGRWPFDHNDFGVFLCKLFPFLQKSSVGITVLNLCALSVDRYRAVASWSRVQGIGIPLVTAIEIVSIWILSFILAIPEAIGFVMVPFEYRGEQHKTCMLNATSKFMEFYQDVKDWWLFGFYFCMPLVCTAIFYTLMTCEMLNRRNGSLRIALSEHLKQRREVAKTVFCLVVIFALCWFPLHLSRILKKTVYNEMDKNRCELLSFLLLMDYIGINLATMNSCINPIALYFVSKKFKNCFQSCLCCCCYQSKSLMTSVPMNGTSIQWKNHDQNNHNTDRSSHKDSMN
Summary of the method: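 Membranes from TE 671 cells (up to 8 μg protein) incubated with ¹²⁵I-ET-1 and compound (1 nM–100 μM final) in 30 mM HEPES pH 7.4, 150 mM NaCl, 5 mM MgCl2, 0.5% bacitracin, 16–18 h at 4 °C or alternatively at 24 °C. Nonspecific binding with 80 nM ET-1; bound pellet gamma-counted, % inhibition calculated, usually triplicate.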

[2] = molecular target: T2, human ETB receptor (Homo sapiens, UniProt P24530); assay: Binding Test #2: inhibition of 125I-ET-1 binding to ETB receptors (transfected COS7 cell membranes); conditions: Table 1; † incubation at 24° C.; read-out: ETB
T2 construct: expressed in transfected cells; host or cells: COS7 cells
T2 sequence (P24530 27-442): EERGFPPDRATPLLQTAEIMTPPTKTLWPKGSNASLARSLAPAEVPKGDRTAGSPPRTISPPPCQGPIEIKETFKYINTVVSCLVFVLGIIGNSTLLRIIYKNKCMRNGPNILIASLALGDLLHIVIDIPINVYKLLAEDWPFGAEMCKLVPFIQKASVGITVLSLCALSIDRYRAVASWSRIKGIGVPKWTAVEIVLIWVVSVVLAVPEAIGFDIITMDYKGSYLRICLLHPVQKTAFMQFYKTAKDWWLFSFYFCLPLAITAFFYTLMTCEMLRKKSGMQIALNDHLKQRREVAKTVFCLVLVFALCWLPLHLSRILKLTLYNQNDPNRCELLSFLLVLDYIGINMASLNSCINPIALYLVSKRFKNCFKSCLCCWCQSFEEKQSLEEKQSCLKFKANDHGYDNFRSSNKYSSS
Summary of the method: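 Competition with 125I-ET-1 for binding to membranes from COS7 cells transfected with human ETB receptor, used at 1 μg/50 μl binding buffer. Membranes prepared in HEPES pH 7.4 with aprotinin, including a DNase/MnCl2 step at 37 °C for 30 min.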

SMILES	IC50 [1] [µM]	IC50 [2] [µM]
Cc1cc2c(cc1CC(=O)c1sccc1S(=O)(=O)Nc1onc(C)c1Cl)OCO2 [N-(4-chloro-3-methyl-5-isoxazolyl)-2-[2-methyl-4,5-(methylenedioxy)phenylacetyl]thiophene-3-sulfonamide]	0.0032	9
Cc1noc(NS(=O)(=O)c2ccsc2C(=O)Cc2ccc3c(c2)OCO3)c1Cl [N-(4-chloro-3-methyl-5-isoxazolyl)-2-[(3,4-(methylenedioxy)phenylacetyl]thiophene-3-sulfonamide]	0.021	6.5

Source: US6683103B2, “Sulfonamides for treatment of endothelin-mediated disorders” (Texas Biotechnology Corporation, priority 1997, dated 2004)
